Like-named read-outs stand apart in the source and are kept apart here.
Assays:
Assay in all cases: PDSP off-target radioligand binding assay
M2 = molecular target: T1, M2 (Homo sapiens, UniProt P08172)
T1 sequence (P08172 1-466): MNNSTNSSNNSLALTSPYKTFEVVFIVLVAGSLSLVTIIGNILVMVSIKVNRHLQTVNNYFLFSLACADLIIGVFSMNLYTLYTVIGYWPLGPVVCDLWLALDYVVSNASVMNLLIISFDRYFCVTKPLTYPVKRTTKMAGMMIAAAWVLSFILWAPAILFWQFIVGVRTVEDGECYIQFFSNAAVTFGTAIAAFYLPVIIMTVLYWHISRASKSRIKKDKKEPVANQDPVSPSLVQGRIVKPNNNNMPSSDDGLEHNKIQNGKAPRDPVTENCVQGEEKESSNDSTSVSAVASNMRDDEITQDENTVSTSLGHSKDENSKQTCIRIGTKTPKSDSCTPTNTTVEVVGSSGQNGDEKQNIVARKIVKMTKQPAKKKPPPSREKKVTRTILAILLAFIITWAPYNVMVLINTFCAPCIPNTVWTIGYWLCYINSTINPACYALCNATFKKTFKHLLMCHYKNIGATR
Procedure: (§1) Table S1. Off binding data of CW24.
(§2) The off-target binding assays were performed at PDSP with their standard protocol (https://pdspdb.unc.edu/pdspWeb/content/UNC-CH%20Protocol%20Book.pdf). In radioligand binding assays, CW24 was tested at a single concentration (10 µM) and in quadruplicate in 96-well plates. The binding assays were carried out in a final of volume of 125 µl per well in appropriate binding buffers. The hot ligand concentration is usually at a concentration close to the Kd (unless otherwise indicated). Total binding and nonspecific binding are determined in the absence and presence of 10 µM of the appropriate reference compound, respectively. In brief, plates are usually incubated at room temperature and in the dark for 90 mins. Reactions are stopped by vacuum filtration onto 0.3% polyethyleneimine (PEI) soaked 96-well filter mats using a 96-well Filtermate harvester, followed by three washes with cold wash buffers (for details, see Tables 2 to 24). Scintillation cocktail is then melted onto the microwave-dried filters on a hot plate and radioactivity is counted in a Microbeta counter.
(§3) Receptor % Inhibition 1 % Inhibition 2 % Inhibition 3 % Inhibition 4 Mean±SD %

Alpha1D = molecular target: T2, Alpha1D (Homo sapiens, UniProt P25100)
T2 construct: NIMH PDSP
T2 sequence (P25100 1-572): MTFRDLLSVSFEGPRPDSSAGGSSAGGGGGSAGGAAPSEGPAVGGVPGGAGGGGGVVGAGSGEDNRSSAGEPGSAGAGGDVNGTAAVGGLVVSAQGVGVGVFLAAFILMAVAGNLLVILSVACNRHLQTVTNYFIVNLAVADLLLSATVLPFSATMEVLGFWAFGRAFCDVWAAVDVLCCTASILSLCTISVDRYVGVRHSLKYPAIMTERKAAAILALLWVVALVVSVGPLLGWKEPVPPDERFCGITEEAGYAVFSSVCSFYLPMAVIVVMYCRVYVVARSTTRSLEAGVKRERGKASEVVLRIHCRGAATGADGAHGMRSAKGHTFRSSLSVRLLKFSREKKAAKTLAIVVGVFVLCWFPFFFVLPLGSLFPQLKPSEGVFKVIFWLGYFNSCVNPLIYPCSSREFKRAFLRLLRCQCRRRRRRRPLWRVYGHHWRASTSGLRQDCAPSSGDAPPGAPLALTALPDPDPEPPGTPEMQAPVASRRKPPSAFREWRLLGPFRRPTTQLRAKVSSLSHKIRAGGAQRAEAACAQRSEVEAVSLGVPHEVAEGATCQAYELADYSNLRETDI
Procedure: as §1, §2, §3

H1 = H1 (Homo sapiens, UniProt P35367)
Chain of H1 (P35367 whole entry): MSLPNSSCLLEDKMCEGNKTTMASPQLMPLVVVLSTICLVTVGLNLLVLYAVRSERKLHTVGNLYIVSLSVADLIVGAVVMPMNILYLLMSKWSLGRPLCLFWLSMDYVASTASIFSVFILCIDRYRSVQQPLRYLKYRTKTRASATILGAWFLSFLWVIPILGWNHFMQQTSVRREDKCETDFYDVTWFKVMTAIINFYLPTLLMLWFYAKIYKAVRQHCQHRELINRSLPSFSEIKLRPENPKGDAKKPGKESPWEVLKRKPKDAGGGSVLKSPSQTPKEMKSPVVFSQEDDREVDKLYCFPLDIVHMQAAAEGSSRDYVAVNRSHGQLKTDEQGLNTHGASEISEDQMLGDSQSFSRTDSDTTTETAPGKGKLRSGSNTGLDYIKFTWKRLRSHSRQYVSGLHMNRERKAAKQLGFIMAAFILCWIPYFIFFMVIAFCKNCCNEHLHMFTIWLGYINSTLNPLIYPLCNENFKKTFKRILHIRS
Procedure: as §1, §2, §3

D5 = D5 (Homo sapiens, UniProt P21918)
Chain of D5 (P21918 whole entry): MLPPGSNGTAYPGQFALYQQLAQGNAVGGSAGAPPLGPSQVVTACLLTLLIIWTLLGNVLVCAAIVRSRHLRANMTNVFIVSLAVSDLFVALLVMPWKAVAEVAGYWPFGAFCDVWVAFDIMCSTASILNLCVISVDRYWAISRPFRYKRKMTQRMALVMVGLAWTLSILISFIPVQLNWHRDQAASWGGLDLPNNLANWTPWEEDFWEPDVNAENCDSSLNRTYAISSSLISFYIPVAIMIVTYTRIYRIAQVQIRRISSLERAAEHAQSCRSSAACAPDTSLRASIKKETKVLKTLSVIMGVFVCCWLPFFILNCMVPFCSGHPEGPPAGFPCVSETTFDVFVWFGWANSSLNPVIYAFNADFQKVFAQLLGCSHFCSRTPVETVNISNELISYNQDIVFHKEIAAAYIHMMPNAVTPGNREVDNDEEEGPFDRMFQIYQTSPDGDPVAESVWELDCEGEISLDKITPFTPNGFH
Procedure: as §1, §2, §3

SERT = SERT (Homo sapiens, UniProt P31645)
Chain of SERT (P31645 whole entry, species assumed): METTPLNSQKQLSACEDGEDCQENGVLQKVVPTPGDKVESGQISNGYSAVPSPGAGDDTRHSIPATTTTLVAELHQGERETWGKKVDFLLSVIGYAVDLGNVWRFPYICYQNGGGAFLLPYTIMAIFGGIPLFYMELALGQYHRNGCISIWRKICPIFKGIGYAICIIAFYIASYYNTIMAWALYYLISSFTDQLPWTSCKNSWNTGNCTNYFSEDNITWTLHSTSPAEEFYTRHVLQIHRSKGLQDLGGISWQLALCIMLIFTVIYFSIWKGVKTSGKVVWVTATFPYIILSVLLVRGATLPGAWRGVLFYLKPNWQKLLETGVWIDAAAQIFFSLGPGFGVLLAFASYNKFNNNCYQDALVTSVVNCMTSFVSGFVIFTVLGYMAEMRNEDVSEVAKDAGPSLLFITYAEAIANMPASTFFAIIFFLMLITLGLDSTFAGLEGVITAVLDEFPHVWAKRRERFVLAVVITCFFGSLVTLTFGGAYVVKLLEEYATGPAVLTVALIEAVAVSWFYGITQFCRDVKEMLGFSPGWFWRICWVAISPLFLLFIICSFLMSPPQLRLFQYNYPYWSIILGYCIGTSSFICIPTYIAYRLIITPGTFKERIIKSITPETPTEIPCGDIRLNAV
Procedure: as §1, §2, §3

5-HT1D = molecular target: T3, 5-HT1D (Homo sapiens, UniProt P28221)
T3 construct: NIMH PDSP
T3 sequence (P28221 whole entry, species assumed): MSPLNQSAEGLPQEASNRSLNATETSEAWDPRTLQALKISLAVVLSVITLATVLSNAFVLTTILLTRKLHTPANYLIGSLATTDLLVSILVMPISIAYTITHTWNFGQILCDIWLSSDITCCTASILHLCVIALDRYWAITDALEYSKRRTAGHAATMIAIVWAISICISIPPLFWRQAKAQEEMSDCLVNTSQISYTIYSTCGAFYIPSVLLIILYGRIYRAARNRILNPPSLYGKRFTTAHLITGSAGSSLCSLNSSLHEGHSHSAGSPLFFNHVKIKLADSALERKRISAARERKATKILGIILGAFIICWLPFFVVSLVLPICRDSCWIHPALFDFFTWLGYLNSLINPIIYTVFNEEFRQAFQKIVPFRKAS
Procedure: as §1, §2, §3

5-HT5A = molecular target: T4, 5-HT5A (Homo sapiens, UniProt P47898)
T4 construct: NIMH PDSP
T4 sequence (P47898 whole entry, species assumed): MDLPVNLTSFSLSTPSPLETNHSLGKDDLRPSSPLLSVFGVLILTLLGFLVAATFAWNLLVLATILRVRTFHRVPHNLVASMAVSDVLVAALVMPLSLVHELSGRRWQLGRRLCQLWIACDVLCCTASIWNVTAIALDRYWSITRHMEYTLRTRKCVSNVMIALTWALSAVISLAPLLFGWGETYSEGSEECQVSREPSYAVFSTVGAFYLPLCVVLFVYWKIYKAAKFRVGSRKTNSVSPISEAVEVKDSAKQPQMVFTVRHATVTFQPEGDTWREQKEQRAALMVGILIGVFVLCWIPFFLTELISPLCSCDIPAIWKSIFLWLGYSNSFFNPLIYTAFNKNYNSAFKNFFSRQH
Procedure: as §1, §2, §3

M5 = molecular target: T5, M5 (Homo sapiens, UniProt P08912)
T5 sequence (P08912 1-532): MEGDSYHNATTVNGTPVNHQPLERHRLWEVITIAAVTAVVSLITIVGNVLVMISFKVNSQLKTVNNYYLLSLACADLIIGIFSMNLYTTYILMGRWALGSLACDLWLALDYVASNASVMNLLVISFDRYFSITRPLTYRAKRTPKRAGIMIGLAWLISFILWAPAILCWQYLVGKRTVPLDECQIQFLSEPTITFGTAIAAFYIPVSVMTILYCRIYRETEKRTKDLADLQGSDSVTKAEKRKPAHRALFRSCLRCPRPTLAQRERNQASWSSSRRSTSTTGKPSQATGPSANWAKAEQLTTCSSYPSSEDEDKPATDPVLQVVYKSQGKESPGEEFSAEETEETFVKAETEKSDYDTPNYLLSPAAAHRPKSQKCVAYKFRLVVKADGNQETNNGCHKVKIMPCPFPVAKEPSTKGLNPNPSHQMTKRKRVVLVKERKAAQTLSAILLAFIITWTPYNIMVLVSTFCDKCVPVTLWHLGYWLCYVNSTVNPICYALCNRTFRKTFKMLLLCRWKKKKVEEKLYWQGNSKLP
Procedure: as §1, §2, §3

MOR = MOR (Homo sapiens, UniProt P35372)
Chain of MOR (P35372 whole entry): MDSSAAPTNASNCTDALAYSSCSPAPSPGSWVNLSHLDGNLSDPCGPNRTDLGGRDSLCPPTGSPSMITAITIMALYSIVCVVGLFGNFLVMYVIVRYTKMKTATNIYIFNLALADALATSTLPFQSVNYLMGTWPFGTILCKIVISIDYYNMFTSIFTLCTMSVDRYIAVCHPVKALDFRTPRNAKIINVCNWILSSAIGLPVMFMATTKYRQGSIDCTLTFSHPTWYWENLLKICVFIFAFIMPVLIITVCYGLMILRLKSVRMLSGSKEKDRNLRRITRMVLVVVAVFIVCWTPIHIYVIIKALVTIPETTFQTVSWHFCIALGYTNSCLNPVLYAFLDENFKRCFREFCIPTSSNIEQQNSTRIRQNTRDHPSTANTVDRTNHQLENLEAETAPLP
Procedure: as §1, §2, §3

[1] = quadruplicate, read-out: Mean±SD % inhibition
[2] = replicate 1, read-out: % Inhibition 1
[3] = replicate 2, read-out: % Inhibition 2
[4] = replicate 3, read-out: % Inhibition 3
[5] = replicate 4, read-out: % Inhibition 4

COc1ccnc(N2CCC3(CCCN(Cc4cn(C)c5ccccc45)C3=O)CC2)n1 [CW24] showed an inhibition at 10 µM (M2; [1]) of -0.08 ± 16.7%, an inhibition at 10 µM (M2; [2]) of -1.12% and an inhibition at 10 µM (M2; [3]) of -4.61%. For the same compound, the inhibition at 10 µM (M2; [4]) was -17.4%, the inhibition at 10 µM (M2; [5]) was 22.8% and the inhibition at 10 µM (Alpha1D; [1]) was -13.7 ± 16.7%. It also gave an inhibition at 10 µM (Alpha1D; [2]) of 6.91%, an inhibition at 10 µM (Alpha1D; [3]) of -32.8% and an inhibition at 10 µM (Alpha1D; [4]) of -9.43%. It also gave an inhibition at 10 µM (Alpha1D; [5]) of -19.4%, an inhibition at 10 µM (H1; [1]) of 10.5 ± 12.7% and an inhibition at 10 µM (H1; [2]) of 13%. The inhibition at 10 µM (H1; [3]) was -0.52%, the inhibition at 10 µM (H1; [4]) was 1.94% and the inhibition at 10 µM (H1; [5]) was 27.5%. It also gave an inhibition at 10 µM (D5; [1]) of 15.5 ± 27.3%, an inhibition at 10 µM (D5; [2]) of 4.57% and an inhibition at 10 µM (D5; [3]) of -5.32%. It also gave an inhibition at 10 µM (D5; [4]) of 7.05%, an inhibition at 10 µM (D5; [5]) of 55.8% and an inhibition at 10 µM (SERT; [1]) of 10.8 ± 11.9%. It also gave an inhibition at 10 µM (SERT; [2]) of 10.6%, an inhibition at 10 µM (SERT; [3]) of -3.59% and an inhibition at 10 µM (SERT; [4]) of 10.6%. It also gave an inhibition at 10 µM (SERT; [5]) of 25.6%, an inhibition at 10 µM (5-HT1D; [1]) of 23.5 ± 9.4% and an inhibition at 10 µM (5-HT1D; [2]) of 32.1%. For the same compound, the inhibition at 10 µM (5-HT1D; [3]) was 20%, the inhibition at 10 µM (5-HT1D; [4]) was 11.9% and the inhibition at 10 µM (5-HT1D; [5]) was 30.2%. The inhibition at 10 µM (5-HT5A; [1]) was -4.44 ± 7.73%, the inhibition at 10 µM (5-HT5A; [2]) was 5.59% and the inhibition at 10 µM (5-HT5A; [3]) was -6.33%. For the same compound, the inhibition at 10 µM (5-HT5A; [4]) was -13.1%, the inhibition at 10 µM (5-HT5A; [5]) was -3.89% and the inhibition at 10 µM (M5; [1]) was 27.4 ± 11.1%. For the same compound, the inhibition at 10 µM (M5; [2]) was 15.3%, the inhibition at 10 µM (M5; [3]) was 31.9% and the inhibition at 10 µM (M5; [4]) was 40.5%. The inhibition at 10 µM (M5; [5]) was 21.6%, the inhibition at 10 µM (MOR; [1]) was -2.04 ± 10.4% and the inhibition at 10 µM (MOR; [2]) was 5.06%. It also gave an inhibition at 10 µM (MOR; [3]) of -11.3%, an inhibition at 10 µM (MOR; [4]) of 8.74% and an inhibition at 10 µM (MOR; [5]) of -10.6%.

— PMC7179119, “A New Positron Emission Tomography Probe for Orexin Receptors Neuroimaging” (Molecules, 2020)
